Assay results reported in ChEMBL document CHEMBL5321262, “Antiviral Activity of Cannabidiolic Acid and Its Methyl Ester against SARS-CoV-2” (J Nat Prod, 2023).
pIC50: −log10 of the molar value. Active and inactive are the calls of the source. The rule behind the calls is not given here.

What was measured:
SARS-CoV-2 [1] = assay: Antiviral activity against SARS-CoV-2 variant Omicron BA.3 infected in African green monkey Vero E6 cells assessed as reduction in virus titers of progeny virus in supernatant measured after 72 hrs by CPE assay; type: functional, organism-based; conditions: Severe acute respiratory syndrome coronavirus 2, Omicron BA.3, Vero C1008, 72 h
SARS-CoV-2 [2] = assay: Antiviral activity against SARS-CoV-2 variant Delta infected in African green monkey Vero E6 cells assessed as reduction in virus titers of progeny virus in supernatant measured after 72 hrs by CPE assay; type: functional, organism-based; conditions: Severe acute respiratory syndrome coronavirus 2, Delta, Vero C1008, 72 h
SARS-CoV-2 [3] = assay: Antiviral activity against SARS-CoV-2 variant Omicron BA.2 infected in African green monkey Vero E6 cells assessed as reduction in virus titers of progeny virus in supernatant measured after 72 hrs by CPE assay; type: functional, organism-based; conditions: Severe acute respiratory syndrome coronavirus 2, Omicron BA.2, Vero C1008, 72 h
SARS-CoV-2 [4] = assay: Antiviral activity against SARS-CoV-2 variant Delta infected in African green monkey Vero E6 cells assessed as reduction in virus-induced cytopathic effect at 37.5 uM preincubated with virus for 1 hr followed by infection with cells and measured after 72 hrs by microscopic analysis; type: functional, organism-based; conditions: Severe acute respiratory syndrome coronavirus 2, time 73.0 hrs
SARS-CoV-2 [5] = assay: Antiviral activity against SARS-CoV-2 variant Omicron BA.4 infected in African green monkey Vero E6 cells assessed as inhibition of virus titers of progeny virus in supernatant at 37.5 uM measured after 72 hrs by CPE assay relative to control; type: functional; conditions: Severe acute respiratory syndrome coronavirus 2, Omicron BA.4, Vero C1008
SARS-CoV-2 [6] = assay: Antiviral activity against SARS-CoV-2 variant Omicron BA.3 infected in African green monkey Vero E6 cells assessed as reduction in viral replication at 37.5 uM measured at 72 hrs post-infection by qRT-PCR analysis; type: functional, organism-based; conditions: Severe acute respiratory syndrome coronavirus 2
SARS-CoV-2 [7] = assay: Antiviral activity against SARS-CoV-2 variant Omicron BA.5 infected in African green monkey Vero E6 cells assessed as reduction in viral replication at 37.5 uM measured at 72 hrs post-infection by qRT-PCR analysis; type: functional, organism-based; conditions: Severe acute respiratory syndrome coronavirus 2
SARS-CoV-2 [8] = assay: Antiviral activity against SARS-CoV-2 variant Delta infected in African green monkey Vero E6 cells assessed as inhibition of virus titers of progeny virus in supernatant at 37.5 uM measured after 72 hrs by CPE assay relative to control; type: functional; conditions: Severe acute respiratory syndrome coronavirus 2, Delta, Vero C1008
SARS-CoV-2 [9] = assay: Antiviral activity against SARS-CoV-2 variant Omicron BA.1 infected in African green monkey Vero E6 cells assessed as reduction in virus-induced cytopathic effect at 37.5 uM preincubated with virus for 1 hr followed by infection with cells and measured after 72 hrs by microscopic analysis; type: functional, organism-based; conditions: Severe acute respiratory syndrome coronavirus 2, time 73.0 hrs
SARS-CoV-2 [10] = assay: Antiviral activity against SARS-CoV-2 variant Omicron BA.2 infected in African green monkey Vero E6 cells assessed as reduction in viral replication at 37.5 uM measured at 72 hrs post-infection by qRT-PCR analysis; type: functional, organism-based; conditions: Severe acute respiratory syndrome coronavirus 2
SARS-CoV-2 [11] = assay: Antiviral activity against SARS-CoV-2 variant Omicron BA.1 infected in African green monkey Vero E6 cells assessed as inhibition of virus titers of progeny virus in supernatant at 37.5 uM measured after 72 hrs by CPE assay relative to control; type: functional; conditions: Severe acute respiratory syndrome coronavirus 2, Omicron BA.1, Vero C1008
SARS-CoV-2 [12] = assay: Antiviral activity against SARS-CoV-2 variant Omicron BA.1 infected in African green monkey Vero E6 cells assessed as reduction in viral replication at 37.5 uM measured at 72 hrs post-infection by qRT-PCR analysis; type: functional, organism-based; conditions: Severe acute respiratory syndrome coronavirus 2
SARS-CoV-2 [13] = assay: Antiviral activity against SARS-CoV-2 variant Omicron BA.4 infected in African green monkey Vero E6 cells assessed as reduction in viral replication at 37.5 uM measured at 72 hrs post-infection by qRT-PCR analysis; type: functional, organism-based; conditions: Severe acute respiratory syndrome coronavirus 2
SARS-CoV-2 [14] = assay: Antiviral activity against SARS-CoV-2 variant Omicron BA.4 infected in African green monkey Vero E6 cells assessed as reduction in virus titers of progeny virus in supernatant measured after 72 hrs by CPE assay; type: functional, organism-based; conditions: Severe acute respiratory syndrome coronavirus 2, Omicron BA.4, Vero C1008, 72 h
SARS-CoV-2 [15] = assay: Antiviral activity against SARS-CoV-2 variant Omicron BA.1 infected in African green monkey Vero E6 cells assessed as reduction in virus titers of progeny virus in supernatant measured after 72 hrs by CPE assay; type: functional, organism-based; conditions: Severe acute respiratory syndrome coronavirus 2, Omicron BA.1, Vero C1008, 72 h
SARS-CoV-2 [16] = assay: Antiviral activity against SARS-CoV-2 variant Omicron BA.5 infected African green monkey Vero E6 cells assessed as reduction in virus-induced cytopathic effect at 37.5 uM preincubated with virus for 1 hr followed by infection with cells and measured after 72 hrs by microscopic analysis; type: functional, organism-based; conditions: Severe acute respiratory syndrome coronavirus 2, time 73.0 hrs
SARS-CoV-2 [17] = assay: Antiviral activity against SARS-CoV-2 variant Omicron BA.2 infected in African green monkey Vero E6 cells assessed as inhibition of virus titers of progeny virus in supernatant at 37.5 uM measured after 72 hrs by CPE assay relative to control; type: functional; conditions: Severe acute respiratory syndrome coronavirus 2, Omicron BA.2, Vero C1008
SARS-CoV-2 [18] = assay: Antiviral activity against SARS-CoV-2 variant Delta infected in African green monkey Vero E6 cells assessed as reduction in viral replication at 37.5 uM measured at 72 hrs post-infection by qRT-PCR analysis; type: functional, organism-based; conditions: Severe acute respiratory syndrome coronavirus 2
SARS-CoV-2 [19] = assay: Antiviral activity against SARS-CoV-2 variant Omicron BA.2 infected in African green monkey Vero E6 cells assessed as reduction in virus-induced cytopathic effect at 37.5 uM preincubated with virus for 1 hr followed by infection with cells and measured after 72 hrs by microscopic analysis; type: functional, organism-based; conditions: Severe acute respiratory syndrome coronavirus 2, time 73.0 hrs
SARS-CoV-2 [20] = assay: Antiviral activity against SARS-CoV-2 variant Omicron BA.3 infected African green monkey Vero E6 cells assessed as reduction in virus-induced cytopathic effect at 37.5 uM preincubated with virus for 1 hr followed by infection with cells and measured after 72 hrs by microscopic analysis; type: functional, organism-based; conditions: Severe acute respiratory syndrome coronavirus 2, time 73.0 hrs
SARS-CoV-2 [21] = assay: Antiviral activity against SARS-CoV-2 variant Omicron BA.5 infected in African green monkey Vero E6 cells assessed as inhibition of virus titers of progeny virus in supernatant at 37.5 uM measured after 72 hrs by CPE assay relative to control; type: functional; conditions: Severe acute respiratory syndrome coronavirus 2, Omicron BA.5, Vero C1008
SARS-CoV-2 [22] = assay: Antiviral activity against SARS-CoV-2 variant Omicron BA.4 infected African green monkey Vero E6 cells assessed as reduction in virus-induced cytopathic effect at 37.5 uM preincubated with virus for 1 hr followed by infection with cells and measured after 72 hrs by microscopic analysis; type: functional, organism-based; conditions: Severe acute respiratory syndrome coronavirus 2, time 73.0 hrs
SARS-CoV-2 [23] = assay: Antiviral activity against SARS-CoV-2 variant Omicron BA.5 infected in African green monkey Vero E6 cells assessed as reduction in virus titers of progeny virus in supernatant measured after 72 hrs by CPE assay; type: functional, organism-based; conditions: Severe acute respiratory syndrome coronavirus 2, Omicron BA.5, Vero C1008, 72 h
SARS-CoV-2 [24] = assay: Antiviral activity against SARS-CoV-2 variant Omicron BA.3 infected in African green monkey Vero E6 cells assessed as inhibition of virus titers of progeny virus in supernatant at 37.5 uM measured after 72 hrs by CPE assay relative to control; type: functional; conditions: Severe acute respiratory syndrome coronavirus 2, Omicron BA.3, Vero C1008

C=C(C)[C@@H]1CCC(C)=C[C@H]1c1c(O)cc(CCCCC)c(C(=O)OC)c1O
pIC50 (SARS-CoV-2 [1]): 4.73 | pIC50 (SARS-CoV-2 [2]): 4.80 | pIC50 (SARS-CoV-2 [3]): 4.78 | Activity (SARS-CoV-2 [4]): Active | inhibition at 37.5 µM (SARS-CoV-2 [5]): > 90% | Activity (SARS-CoV-2 [6]): Active | Activity (SARS-CoV-2 [7]): Active | inhibition at 37.5 µM (SARS-CoV-2 [8]): > 90% | Activity (SARS-CoV-2 [9]): Active | Activity (SARS-CoV-2 [10]): Active | inhibition at 37.5 µM (SARS-CoV-2 [11]): > 90% | Activity (SARS-CoV-2 [12]): Active | Activity (SARS-CoV-2 [13]): Active | pIC50 (SARS-CoV-2 [14]): 4.72 | pIC50 (SARS-CoV-2 [15]): 4.81 | Activity (SARS-CoV-2 [16]): Active | inhibition at 37.5 µM (SARS-CoV-2 [17]): > 90% | Activity (SARS-CoV-2 [18]): Active | Activity (SARS-CoV-2 [19]): Active | Activity (SARS-CoV-2 [20]): Active | inhibition at 37.5 µM (SARS-CoV-2 [21]): > 90% | Activity (SARS-CoV-2 [22]): Active | pIC50 (SARS-CoV-2 [23]): 4.73 | inhibition at 37.5 µM (SARS-CoV-2 [24]): > 90%
